Results as given in patent publication US11708348B2, “Protease inhibitors for treatment of coronavirus infections” (The Scripps Research Institute, priority 2021, dated 2023).
Read-outs that look alike come from different tables or passages of the source.

Tested on: SARS-CoV-2 strain USA-WA1/2020
Assay: microbe, parasite or virus in culture
Format: cell-based
Settings: HeLa-ACE2 cells, SARS-CoV-2 infection, 24 h, read-out: EC50, uM (Hela)
[1] = Severe acute respiratory syndrome coronavirus 2, HeLa-ACE2, 24 h
[2] = Severe acute respiratory syndrome coronavirus 2, HeLa-ACE2, 24 h, class symbols

Compound | EC50 [1] [µM] | EC50 [2] [µM] | further results
CC(C)C[C@H](Nc1cc2ccccc2[nH]c1=O)C(=O)N[C@@H](C[C@@H]1CCNC1=O)C(=O)COC(F)(F)F [Compound 465, (S)-4-methyl-2-((2-oxo-1,2-dihydroquinolin-3-yl)amino)-N-((S)-3-oxo-1-((S)-2-oxopyrrolidin-3-yl)-4-(trifluoromethoxy)butan-2-yl)pentanamide] | 0.2 to 0.5 | – | –
COc1cccc(F)c1NC(=O)C(=O)N[C@@H](CC(C)C)C(=O)N[C@@H](C[C@@H]1CCNC1=O)C(=O)COC(F)(F)F [Compound 166, N1-(2-fluoro-6-methoxyphenyl)-N2-((S)-4-methyl-1-oxo-1-(((S)-3-oxo-1-((S)-2-oxopyrrolidin-3-yl)-4-(trifluoromethoxy)butan-2-yl)amino)pentan-2-yl)oxalamide] | – | < 0.05 | –
CC(C)C[C@H](NC(=O)C(=O)Nc1ccc2ccccc2c1)C(=O)N[C@@H](C[C@@H]1CCNC1=O)C(=O)COc1c(F)c(F)cc(F)c1F [Compound 34, N1-((S)-4-methyl-1-oxo-1-(((S)-3-oxo-1-((S)-2-oxopyrrolidin-3-yl)-4-(2,3,5,6-tetrafluorophenoxy)butan-2-yl)amino)pentan-2-yl)-N2-(naphthalen-2-yl)oxalamide] | – | 0.05 to 0.2 | –
CCC(=O)O[C@H](CC(C)C)C(=O)N1CC2(CC2)C[C@H]1C(=O)N[C@@H](C[C@@H]1CCNC1=O)C(=O)COC(F)(F)F [Compound 626, (R)-4-methyl-1-oxo-1-((S)-6-(((S)-3-oxo-l-((S)-2-oxopyrrolidin-3-yl)-4-(trifluoromethoxy)butan-2-yl)carbamoyl)-5-azaspiro[2.4]heptan-5-yl)pentan-2-yl propionate] | < 0.05 | – | –
CC(C)C[C@H](NC(=O)C12CC(C(F)F)(CO1)C2)C(=O)N[C@@H](C[C@@H]1CCNC1=O)C(=O)COC(F)(F)F [Compound 319, 4-(difluoromethyl)-N-((S)-4-methyl-1-oxo-1-(((S)-3-oxo-1-((S)-2-oxopyrrolidin-3-yl)-4-(trifluoromethoxy)butan-2-yl)amino)pentan-2-yl)-2-oxabicyclo-[2.1.1]hexane-1-carboxamide] | – | < 0.05 | –
O=C1NCC[C@H]1C[C@H](NC(=O)[C@@H]1[C@H]2CCC[C@H]2CN1C(=O)C12CC(C(F)(F)F)(CO1)C2)C(=O)COC(F)(F)F [Compound 315, (1S,3aR,6aS)-N-((S)-3-oxo-1-((S)-2-oxopyrrolidin-3-yl)-4-(trifluoromethoxy)butan-2-yl)-2-(4-(trifluoromethyl)-2-oxabicyclo[2.1.1]-hexane-1-carbonyl)-octahydrocyclopenta-[c]pyrrole-1-carboxamide] | – | < 0.05 | –
COc1cccc2[nH]c(C(=O)N3C[C@@H]4CCC[C@@H]4[C@H]3C(=O)N[C@@H](C[C@@H]3CCNC3=O)C(=O)COC(F)(F)F)cc12 [Compound 608, (1S,3aR,6aS)-2-(4-methoxy-1H-indole-2-carbonyl)-N-((S)-3-oxo-1-((S)-2-oxopyrrolidin-3-yl)-4-(trifluoromethoxy)butan-2-yl)octahydrocyclopenta[c]pyrrole-1-carboxamide] | < 0.05 | – | –
O=C1NCC[C@H]1C[C@H](NC(=O)[C@@H]1CC2(CC2)CN1C(=O)CC(F)(F)C(F)F)C(=O)COC(F)(F)F [Compound 684, (S)-N-((S)-3-oxo-1-((S)-2-oxopyrrolidin-3-yl)-4-(trifluoromethoxy)butan-2-yl)-5-(3,3,4,4-tetrafluorobutanoyl)-5-azaspiro[2.4]heptane-6-carboxamide] | 0.05 to 0.2 | – | –
[2H]C([2H])(CCCC)C(=O)N1CC2(CC2)C[C@H]1C(=O)N[C@@H](C[C@@H]1CCNC1=O)C(=O)COC(F)(F)F [Compound 740, (S)-5-(hexanoyl-2,2-d2)-N-((S)-3-oxo-1-((S)-2-oxopyrrolidin-3-yl)-4-(trifluoromethoxy)butan-2-yl)-5-azaspiro[2.4]heptane-6-carboxamide] | < 0.05 | – | –
Cc1cccc(NC(=O)C(=O)N[C@@H](CC(C)C)C(=O)N[C@@H](C[C@@H]2CCNC2=O)C(=O)COc2c(F)c(F)cc(F)c2F)c1C [Compound 65, N1-(2,3-dimethylphenyl)-N2-((S)-4-methyl-1-oxo-1-(((S)-3-oxo-1-((S)-2-oxopyrrolidin-3-yl)-4-(2,3,5,6-tetrafluorophenoxy)butan-2-yl)amino)pentan-2-yl)oxalamide] | – | < 0.05 | –
CC(C)C[C@H](NC(=O)C(=O)Nc1ccccc1OC(F)(F)F)C(=O)N[C@@H](C[C@@H]1CCNC1=O)C(=O)COc1c(F)c(F)cc(F)c1F [Compound 113, N1-((S)-4-methyl-1-oxo-1-(((S)-3-oxo-1-((S)-2-oxopyrrolidin-3-yl)-4-(2,3,5,6-tetrafluorophenoxy)butan-2-yl)amino)pentan-2-yl)-N2-(2-(trifluoromethoxy)-phenyl)oxalamide] | – | < 0.05 | –
O=C(N[C@@H](C[C@@H]1CCNC1=O)C(=O)COC(F)(F)F)C1CCCCCN1C(=O)[C@@H](O)c1ccccc1 (stereo partly drawn) [Compound 768, l-((S)-2-hydroxy-2-phenylacetyl)-N-((S)-3-oxo-1-((S)-2-oxopyrrolidin-3-yl)-4-(trifluoromethoxy)butan-2-yl)azepane-2-carboxamide] | 0.05 to 0.2 | – | –
Cc1cc(C(=O)N2C[C@@H]3CCC[C@@H]3[C@H]2C(=O)N[C@@H](C[C@@H]2CCNC2=O)C(=O)COC(F)(F)F)no1 [Compound 545, (1S,3aR,6aS)-2-(5-methylisoxazole-3-carbonyl)-N-((S)-3-oxo-1-((S)-2-oxopyrrolidin-3-yl)-4-(trifluoromethoxy)butan-2-yl)octahydrocyclopenta[c]pyrrole-1-carboxamide] | 0.05 to 0.2 | – | –
CC(C)C[C@H](NC(=O)CNC1(C(F)(F)F)CC1)C(=O)N[C@@H](C[C@@H]1CCNC1=O)C(=O)COC(F)(F)F [Compound 434, (S)-4-methyl-N-((S)-3-oxo-1-((S)-2-oxopyrrolidin-3-yl)-4-(trifluoromethoxy)butan-2-yl)-2-(2-((1-(trifluoromethyl)-cyclopropyl)amino)-acetamido)pentanamide] | < 0.05 | – | –
CC(C)C[C@H](NC(=O)c1ccccc1)C(=O)N[C@@H](C[C@@H]1CCNC1=O)C(=O)COc1c(F)c(F)cc(F)c1F [Compound 9, N-((S)-4-methyl-1-oxo-1-(((S)-3-oxo-1-((S)-2-oxopyrrolidin-3-yl)-4-(2,3,5,6-tetrafluorophenoxy)butan-2-yl)amino)pentan-2-yl)benzamide] | – | 0.05 to 0.2 | –
O=C1NCC[C@H]1C[C@H](NC(=O)[C@@H]1CC2(CC2)CN1C(=O)[C@H](O)CC(C(F)(F)F)C(F)(F)F)C(=O)COC(F)(F)F [Compound 744, (S)-N-((S)-3-oxo-1-((S)-2-oxopyrrolidin-3-yl)-4-(trifluoromethoxy)butan-2-yl)-5-((R)-5,5,5-trifluoro-2-hydroxy-4-(trifluoromethyl)pentanoyl)-5-azaspiro[2.4]heptane-6-carboxamide] | < 0.05 | – | –
CC(C)(C)C[C@H](NC(=O)C(=O)Nc1ccccc1F)C(=O)N[C@@H](C[C@@H]1CCNC1=O)C(=O)COc1c(F)c(F)cc(F)c1F [Compound 130, N1-((S)-4,4-dimethyl-1-oxo-1-(((S)-3-oxo-1-((S)-2-oxopyrrolidin-3-yl)-4-(2,3,5,6-tetrafluorophenoxy)butan-2-yl)amino)pentan-2-yl)-N2-(2-fluorophenyl)oxalamide] | – | < 0.05 | –
CC1(C)C[C@@H](C(=O)N[C@@H](C[C@@H]2CCNC2=O)C(=O)COC(F)(F)F)N(C(=O)C(=O)NC2CC(F)(F)C2)C1 [Compound 543, (S)-1-(2-((3,3-difluorocyclo-butyl)amino)-2-oxoacetyl)-4,4-dimethyl-N-((S)-3-oxo-1-((S)-2-oxopyrrolidin-3-yl)-4-(trifluoromethoxy)butan-2-yl)pyrrolidine-2-carboxamide] | 0.5 to 1 | – | –
CC(C)C(F)(F)C(NC(=O)C(=O)Nc1ccccc1F)C(=O)N[C@@H](C[C@@H]1CCNC1=O)C(=O)COc1c(F)c(F)cc(F)c1F (stereo partly drawn) [Compound 76, N1-(3,3-difluoro-4-methyl-1-oxo-1-(((S)-3-oxo-1-((S)-2-oxopyrrolidin-3-yl)-4-(2,3,5,6-tetrafluorophenoxy)butan-2-yl)amino)pentan-2-yl)-N2-(2-fluorophenyl)oxalamide] | – | 0.05 to 0.2 | –
O=C1NCC[C@H]1C[C@H](NC(=O)[C@@H]1CC2(CC2)CN1C(=O)C1CCC(F)(F)C1)C(=O)COC(F)(F)F (stereo partly drawn) [Compound 720, (6S)-5-(3,3-difluorocyclopentane-1-carbonyl)-N-((S)-3-oxo-1-((S)-2-oxopyrrolidin-3-yl)-4-(trifluoromethoxy)butan-2-yl)-5-azaspiro[2.4]heptane-6-carboxamide] | < 0.05 | – | –
CC(C)(C)C[C@H](NC(=O)C(=O)Nc1ccccc1F)C(=O)N[C@@H](C[C@@H]1CCNC1=O)C(=O)COC(F)(F)F [Compound 528, N1-((S)-4,4-dimethyl-1-oxo-1-(((S)-3-oxo-1-((S)-2-oxopyrrolidin-3-yl)-4-(trifluoromethoxy)butan-2-yl)amino)pentan-2-yl)-N2-(2-fluorophenyl)-oxalamide] | < 0.05 | – | –
O=C(Nc1cc(F)ccc1F)C(=O)N1CC2(CC2)C[C@H]1C(=O)N[C@@H](C[C@@H]1CCNC1=O)C(=O)COC(F)(F)F [Compound 602, (S)-5-(2-((2,5-difluorophenyl)amino)-2-oxoacetyl)-N-((S)-3-oxo-1-((S)-2-oxopyrrolidin-3-yl)-4-(trifluoromethoxy)butan-2-yl)-5-azaspiro[2.4]heptane-6-carboxamide] | < 0.05 | – | –
(S)-4-methyl-2-((l- methyl-1H-indole)-5- sulfonamido)-N-((S)- 3-oxo-1-((S)-2- oxopyrrolidin-3-yl)-4- (trifluoromethoxy)butan- 2-yl)pentanamide [Compound 463] | – | – | EC50: 0.2 to 0.5 µM
Cc1ccccc1NC(=O)C(=O)NC(CC1CCOCC1)C(=O)N[C@@H](C[C@@H]1CCNC1=O)C(=O)COC(F)(F)F (stereo partly drawn) [Compound 524, N1-(1-oxo-1-(((S)-3-oxo-1-((S)-2-oxopyrrolidin-3-yl)-4-(trifluoromethoxy)butan-2-yl)amino)-3-(tetrahydro-2H-pyran-4-yl)propan-2-yl)-N2-(o-tolyl)oxalamide] | < 0.05 | – | –
